# From patent US6689773B2, “Uracil substituted phenyl sulfamoyl carboxamides” (BASF Aktiengesellschaft, priority 2000, dated 2004)
# Experiments:
# Type in all cases: in vivo
# [1] = system: ALOMY, Blackgrass, Alopecurus myosuroides; test: Preemergence herbicidal evaluation (Example 148); conditions: rating scale 0-9, two to four weeks after treatment
# Summary of the method: (§1)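 Applied: aqueous acetone solution, ~0.125–0.250 kg/ha, sprayed on soil just after seeding. Read: visual plant appearance against control, 2–4 weeks post-spray.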
# [2] = system: ECHCG, Barnyardgrass, Echinochloa crusgalli, (L.)Beau; test: Preemergence herbicidal evaluation (Example 148); conditions: rating scale 0-9, two to four weeks after treatment
# Summary of the method: as §1
# [3] = system: ABUTH, Velvetleaf, Abutilon theophrasti, Medic.; test: Preemergence herbicidal evaluation (Example 148); conditions: rating scale 0-9, two to four weeks after treatment
# Summary of the method: as §1
# [4] = system: XANST, Cocklebur, Xanthium strumariam; test: Preemergence herbicidal evaluation (Example 148); conditions: rating scale 0-9, two to four weeks after treatment
# Summary of the method: as §1
# [5] = system: IPOHE, Morningglory, Ivyleaf, Ipomoea hederacea, (L)Jacq.; test: Preemergence herbicidal evaluation (Example 148); conditions: rating scale 0-9, two to four weeks after treatment
# Summary of the method: as §1
# [6] = system: CHEAL, Lambsquarters, Chenopodium album, L. Common; test: Preemergence herbicidal evaluation (Example 148); conditions: rating scale 0-9, two to four weeks after treatment
# Summary of the method: as §1
# [7] = system: GLXMA, Soybean, Glycine max, (L.) Merr.; test: Preemergence herbicidal evaluation (Example 148); conditions: rating scale 0-9, two to four weeks after treatment
# Summary of the method: as §1
# [8] = system: TRZAW, Winter wheat, Tritium Aestivum, L. (Winter); test: Preemergence herbicidal evaluation (Example 148); conditions: rating scale 0-9, two to four weeks after treatment
# Summary of the method: as §1
# [9] = system: SETVI, Green foxtail, Setaria viridis, (L.)Beau; test: Preemergence herbicidal evaluation (Example 148); conditions: rating scale 0-9, two to four weeks after treatment
# Summary of the method: as §1
# [10] = system: AMBEL, Ragweed, Common, Ambrosia artemiisifolia, L.; test: Preemergence herbicidal evaluation (Example 148); conditions: rating scale 0-9, two to four weeks after treatment
# Summary of the method: as §1
# [11] = system: ZEAMX, Field corn, Zea mays L.; test: Preemergence herbicidal evaluation (Example 148); conditions: rating scale 0-9, two to four weeks after treatment
# Summary of the method: as §1
# [12] = system: DIGSA, Crabgrass, (Hairy) L, Digitaria sanguinalis, (L)Scop; test: Preemergence herbicidal evaluation (Example 148); conditions: rating scale 0-9, two to four weeks after treatment
# Summary of the method: as §1
# [13] = system: ALOMY, Blackgrass, Alopecurus myosuroides; test: Postemergence herbicidal evaluation (Example 147); conditions: rating scale 0-9, two to three weeks after treatment
# Summary of the method: (§2)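 Plants at about two weeks from sowing received a foliar spray of test compound equivalent to roughly 0.016 to 0.032 kg per hectare. The carrier was 80/20 acetone/water containing 1.0% methylated seed oil. Injury was scored on a 0-9 visual scale two to three weeks later.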
# [14] = system: ECHCG, Barnyardgrass, Echinochloa crusgalli, (L.)Beau; test: Postemergence herbicidal evaluation (Example 147); conditions: rating scale 0-9, two to three weeks after treatment
# Summary of the method: as §2
# [15] = system: ABUTH, Velvetleaf, Abutilon theophrasti, Medic.; test: Postemergence herbicidal evaluation (Example 147); conditions: rating scale 0-9, two to three weeks after treatment
# Summary of the method: as §2
# [16] = system: XANST, Cocklebur, Xanthium strumariam; test: Postemergence herbicidal evaluation (Example 147); conditions: rating scale 0-9, two to three weeks after treatment
# Summary of the method: as §2
# [17] = system: IPOHE, Morningglory, Ivyleaf, Ipomoea hederacea, (L)Jacq.; test: Postemergence herbicidal evaluation (Example 147); conditions: rating scale 0-9, two to three weeks after treatment
# Summary of the method: as §2
# [18] = system: CHEAL, Lambsquarters, Chenopodium album, L. Common; test: Postemergence herbicidal evaluation (Example 147); conditions: rating scale 0-9, two to three weeks after treatment
# Summary of the method: as §2
# [19] = system: GLXMA, Soybean, Glycine max, (L.) Merr.; test: Postemergence herbicidal evaluation (Example 147); conditions: rating scale 0-9, two to three weeks after treatment
# Summary of the method: as §2
# [20] = system: TRZAW, Winter wheat, Tritium Aestivum, L. (Winter); test: Postemergence herbicidal evaluation (Example 147); conditions: rating scale 0-9, two to three weeks after treatment
# Summary of the method: as §2
# [21] = system: SETVI, Green foxtail, Setaria viridis, (L.)Beau; test: Postemergence herbicidal evaluation (Example 147); conditions: rating scale 0-9, two to three weeks after treatment
# Summary of the method: as §2
# [22] = system: AMBEL, Ragweed, Common, Ambrosia artemiisifolia, L.; test: Postemergence herbicidal evaluation (Example 147); conditions: rating scale 0-9, two to three weeks after treatment
# Summary of the method: as §2
# [23] = system: ZEAMX, Field corn, Zea mays L.; test: Postemergence herbicidal evaluation (Example 147); conditions: rating scale 0-9, two to three weeks after treatment
# Summary of the method: as §2
# [24] = system: DIGSA, Crabgrass, (Hairy) L, Digitaria sanguinalis, (L)Scop; test: Postemergence herbicidal evaluation (Example 147); conditions: rating scale 0-9, two to three weeks after treatment
# Summary of the method: as §2
smiles,measurement,setting,value
C#CCN(C)S(=O)(=O)NC(=O)c1cc(-n2c(=O)cc(C(F)(F)F)n(C)c2=O)c(F)cc1Cl [Example 57],Preemergence herbicidal rating ALMOY,[1]; rate 0.125 kg/ha,0.0
same,Preemergence herbicidal rating ALMOY,[1]; rate 0.25 kg/ha,0.0
same,Preemergence herbicidal rating ECHCG,[2]; rate 0.125 kg/ha,1.0
same,Preemergence herbicidal rating ECHCG,[2]; rate 0.25 kg/ha,2.0
same,Preemergence herbicidal rating ABUTH,[3]; rate 0.125 kg/ha,2.0
same,Preemergence herbicidal rating ABUTH,[3]; rate 0.25 kg/ha,2.0
same,Preemergence herbicidal rating XANST,[4]; rate 0.125 kg/ha,0.0
same,Preemergence herbicidal rating XANST,[4]; rate 0.25 kg/ha,0.0
same,Preemergence herbicidal rating IPOHE,[5]; rate 0.125 kg/ha,0.0
same,Preemergence herbicidal rating IPOHE,[5]; rate 0.25 kg/ha,3.0
same,Preemergence herbicidal rating CHEAL,[6]; rate 0.125 kg/ha,6.0
same,Preemergence herbicidal rating CHEAL,[6]; rate 0.25 kg/ha,8.0
same,Preemergence herbicidal rating GLXMA,[7]; rate 0.125 kg/ha,0.0
same,Preemergence herbicidal rating GLXMA,[7]; rate 0.25 kg/ha,1.0
same,Preemergence herbicidal rating TRZAW,[8]; rate 0.125 kg/ha,0.0
same,Preemergence herbicidal rating TRZAW,[8]; rate 0.25 kg/ha,0.0
same,Preemergence herbicidal rating SETVI,[9]; rate 0.125 kg/ha,0.0
same,Preemergence herbicidal rating SETVI,[9]; rate 0.25 kg/ha,1.0
same,Preemergence herbicidal rating AMBEL,[10]; rate 0.125 kg/ha,2.0
same,Preemergence herbicidal rating AMBEL,[10]; rate 0.25 kg/ha,2.0
same,Preemergence herbicidal rating ZEAMX,[11]; rate 0.125 kg/ha,0.0
same,Preemergence herbicidal rating ZEAMX,[11]; rate 0.25 kg/ha,0.0
same,Preemergence herbicidal rating DIGSA,[12]; rate 0.125 kg/ha,1.0
same,Preemergence herbicidal rating DIGSA,[12]; rate 0.25 kg/ha,3.0
same,Postemergence herbicidal rating ALMOY,[13]; rate 0.016 kg/ha,0.0
same,Postemergence herbicidal rating ALMOY,[13]; rate 0.032 kg/ha,1.0
same,Postemergence herbicidal rating ECHCG,[14]; rate 0.016 kg/ha,1.0
same,Postemergence herbicidal rating ECHCG,[14]; rate 0.032 kg/ha,2.0
same,Postemergence herbicidal rating ABUTH,[15]; rate 0.016 kg/ha,2.0
same,Postemergence herbicidal rating ABUTH,[15]; rate 0.032 kg/ha,5.0
same,Postemergence herbicidal rating XANST,[16]; rate 0.016 kg/ha,2.0
same,Postemergence herbicidal rating XANST,[16]; rate 0.032 kg/ha,3.0
same,Postemergence herbicidal rating IPOHE,[17]; rate 0.016 kg/ha,6.0
same,Postemergence herbicidal rating IPOHE,[17]; rate 0.032 kg/ha,4.0
same,Postemergence herbicidal rating CHEAL,[18]; rate 0.016 kg/ha,1.0
same,Postemergence herbicidal rating CHEAL,[18]; rate 0.032 kg/ha,2.0
same,Postemergence herbicidal rating GLXMA,[19]; rate 0.016 kg/ha,6.0
same,Postemergence herbicidal rating GLXMA,[19]; rate 0.032 kg/ha,6.5
same,Postemergence herbicidal rating TRZAW,[20]; rate 0.016 kg/ha,2.0
same,Postemergence herbicidal rating TRZAW,[20]; rate 0.032 kg/ha,2.5
same,Postemergence herbicidal rating SETVI,[21]; rate 0.016 kg/ha,1.0
same,Postemergence herbicidal rating SETVI,[21]; rate 0.032 kg/ha,3.0
same,Postemergence herbicidal rating AMBEL,[22]; rate 0.016 kg/ha,1.0
same,Postemergence herbicidal rating AMBEL,[22]; rate 0.032 kg/ha,2.0
same,Postemergence herbicidal rating ZEAMX,[23]; rate 0.016 kg/ha,2.0
same,Postemergence herbicidal rating ZEAMX,[23]; rate 0.032 kg/ha,5.0
same,Postemergence herbicidal rating DIGSA,[24]; rate 0.016 kg/ha,1.0
same,Postemergence herbicidal rating DIGSA,[24]; rate 0.032 kg/ha,2.0
